# Source: ChEMBL document CHEMBL1201862, “PubChem BioAssay data set” (2004)
# Activity calls are given as the source filed them.
# Columns and labels:
# [1] = molecular target: Adenosylmethionine-8-amino-7-oxononanoate aminotransferase (Mycobacterium tuberculosis, UniProt P9WQ81); test: Mycobacterium tuberculosis BioA enzyme inhibitor Measured in Biochemical System Using Plate Reader - 2163-02_Inhibitor_Dose_CherryPick_Activity.; assay type: functional, Mycobacterium tuberculosis UT205
# [2] = molecular target: T1, Latent membrane protein 1 (Human herpesvirus 4 (strain B95-8), UniProt P03230); test: LMP1 TES1 pathway selectivity over dsRED control – imaging, HEK293T, dual-color eGFP/dsRED, cherry-picks, selectivity assay for LMP1 NF-kB inhibitor project, dose response (AID 588398); assay type: functional, cell-based
# T1 sequence (P03230 whole entry): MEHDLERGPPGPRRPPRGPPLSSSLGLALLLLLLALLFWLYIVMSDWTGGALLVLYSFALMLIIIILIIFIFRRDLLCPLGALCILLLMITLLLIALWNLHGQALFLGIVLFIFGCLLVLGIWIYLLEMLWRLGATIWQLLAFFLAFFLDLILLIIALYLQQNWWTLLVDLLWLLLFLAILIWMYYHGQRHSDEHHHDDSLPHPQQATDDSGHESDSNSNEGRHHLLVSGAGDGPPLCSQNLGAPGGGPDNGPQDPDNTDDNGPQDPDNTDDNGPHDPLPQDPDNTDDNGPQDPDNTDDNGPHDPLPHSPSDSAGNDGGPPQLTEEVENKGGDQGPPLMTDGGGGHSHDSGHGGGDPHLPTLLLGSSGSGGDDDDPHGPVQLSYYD
# HEK293 = test: EBV LMP1 TES2 canonical NF-kB signalling blockers – cell-based, HEK293, luciferase, cherry-pick, dose response (AID 588343); assay type: functional; conditions: Homo sapiens
# BJ [3] = test: BJ-TERT-LT-ST fibroblast viability loss – cell-based, RAS-independent, luminescence, dose response (AID 1935); assay type: functional; conditions: Homo sapiens;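 note: BJ fibroblasts immortalized with TERT plus LT and ST oncogenes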
# BJ [4] = test: cells; assay type: functional, cell-based; conditions: Homo sapiens
# BJ [5] = test: BJ-TERT fibroblast viability loss – cell-based, RAS-independent, luminescence, dose response (AID 1933); assay type: functional; conditions: Homo sapiens
# [6] = molecular target: Heat shock protein HSP 90-alpha (Homo sapiens, UniProt P07900); assay type: functional, organism-based
# [7] = Fluorescence-based cell-based high throughput dose response assay for inhibitors of the interaction of nucleotide-binding oligomerization domain containing 2 (NOD2) and the receptor-interacting serine-threonine kinase 2 (RIPK2).; assay type: functional; conditions: Homo sapiens
# BJ [8] = test: growth inhibition of engineered Ras-driven BJ cells – cell-based, alamar blue fluorescence, cherrypicked samples, dose response (AID 2631); assay type: functional; conditions: Homo sapiens;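 note: confirmatory dose-response assay in RAS-dependent BJ fibroblasts engineered with TERT, LT and ST, with cytotoxicity read by fluorescence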
# [9] = DRD fibroblast viability loss – cell-based, non-viral oncogenic, luminescence, dose response (AID 1934); assay type: functional; conditions: Homo sapiens
# Protein RecA = molecular target: T2, Protein RecA (Mycobacterium tuberculosis, UniProt P9WHJ3); test: Fluorescence Cell-Free Homogeneous Dose Retest to Identify Inhibitors of RecA-Intein Splicing Activity. [Related pubchem assays (depositor defined):AID2097, AID2223, AID489010, AID492950]; assay type: functional
# T2 sequence (P9WHJ3 whole entry): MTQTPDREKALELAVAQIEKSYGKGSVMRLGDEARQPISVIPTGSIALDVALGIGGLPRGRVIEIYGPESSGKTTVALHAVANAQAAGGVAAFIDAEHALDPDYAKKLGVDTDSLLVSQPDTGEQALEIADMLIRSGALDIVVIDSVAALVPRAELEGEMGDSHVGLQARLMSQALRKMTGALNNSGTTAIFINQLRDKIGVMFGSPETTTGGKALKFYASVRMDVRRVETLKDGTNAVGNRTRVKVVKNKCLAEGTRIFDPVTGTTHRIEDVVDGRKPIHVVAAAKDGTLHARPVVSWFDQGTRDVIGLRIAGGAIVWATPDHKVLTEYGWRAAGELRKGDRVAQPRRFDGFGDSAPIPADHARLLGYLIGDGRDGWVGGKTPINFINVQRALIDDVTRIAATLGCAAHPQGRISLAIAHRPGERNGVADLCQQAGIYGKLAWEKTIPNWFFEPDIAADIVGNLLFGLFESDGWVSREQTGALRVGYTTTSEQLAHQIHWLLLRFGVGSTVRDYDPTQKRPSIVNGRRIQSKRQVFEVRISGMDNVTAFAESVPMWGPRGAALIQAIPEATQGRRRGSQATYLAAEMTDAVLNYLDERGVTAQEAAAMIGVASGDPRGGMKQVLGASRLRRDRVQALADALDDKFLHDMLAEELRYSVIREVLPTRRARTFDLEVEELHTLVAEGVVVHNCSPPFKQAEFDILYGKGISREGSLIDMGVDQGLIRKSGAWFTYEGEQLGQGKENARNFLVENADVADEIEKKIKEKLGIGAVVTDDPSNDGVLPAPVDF
# [10] = molecular target: T3, Replicative DNA helicase DnaB (Mycobacterium tuberculosis, UniProt P9WMR3); test: DnaB intein splicing inhibitors, dose response, biochemical, cell-free fluorescence (AID 449749); assay type: functional
# T3 sequence (P9WMR3 whole entry): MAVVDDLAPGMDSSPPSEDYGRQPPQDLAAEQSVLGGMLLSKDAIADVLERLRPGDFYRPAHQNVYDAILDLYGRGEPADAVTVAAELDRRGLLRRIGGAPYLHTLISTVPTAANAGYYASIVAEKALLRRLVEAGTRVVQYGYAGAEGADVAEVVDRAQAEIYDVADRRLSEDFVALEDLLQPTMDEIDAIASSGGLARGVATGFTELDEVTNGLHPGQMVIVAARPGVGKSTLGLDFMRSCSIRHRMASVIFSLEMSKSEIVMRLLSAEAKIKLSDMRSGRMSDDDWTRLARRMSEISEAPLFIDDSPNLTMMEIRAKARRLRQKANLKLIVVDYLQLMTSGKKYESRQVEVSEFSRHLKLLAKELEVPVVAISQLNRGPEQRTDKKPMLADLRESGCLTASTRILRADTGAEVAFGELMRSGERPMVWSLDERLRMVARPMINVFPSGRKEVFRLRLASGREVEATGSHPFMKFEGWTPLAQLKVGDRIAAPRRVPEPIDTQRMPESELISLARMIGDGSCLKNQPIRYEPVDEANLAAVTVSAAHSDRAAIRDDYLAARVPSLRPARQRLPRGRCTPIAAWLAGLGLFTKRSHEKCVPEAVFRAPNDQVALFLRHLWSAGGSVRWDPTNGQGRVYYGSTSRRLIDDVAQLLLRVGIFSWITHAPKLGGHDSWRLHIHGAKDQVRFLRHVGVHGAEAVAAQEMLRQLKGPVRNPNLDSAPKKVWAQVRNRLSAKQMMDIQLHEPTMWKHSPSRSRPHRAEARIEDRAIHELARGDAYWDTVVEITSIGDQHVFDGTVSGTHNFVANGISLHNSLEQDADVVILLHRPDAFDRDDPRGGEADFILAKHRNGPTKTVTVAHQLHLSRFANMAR
# INS1 = test: INS-1E survival protection against cytokine death – cell-based, luminescence, retest, dose response (AID 449756); assay type: functional; conditions: Rattus norvegicus;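 note: cell death triggered by IL-1 beta plus TNF-alpha plus IFN-gamma mixture; protective hits raise ATP signal compared with cytokine alone wells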
# [11] = general cell-killing toxicity readout – plate reader, dry powder samples, cytotoxicity control for PAX8 inhibitor project, dose response (AID 743021); assay type: functional, cell-based
# Melanocortin receptor 4 = Melanocortin receptor 4 (Homo sapiens, UniProt P32245); test: inhibitors of MC4R cAMP signaling – cell-based, TR-FRET, biased antagonists, dose response (AID 602298); assay type: functional;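 note: antagonist potency against agonist-stimulated cAMP production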
# [12] = Luminescence Cell-Based Dose Retest to Confirm Inhibitors of Cancer Stem Cells. [Related pubchem assays (depositor defined):AID2717, AID2721]; assay type: functional; conditions: Homo sapiens
# [13] = cAMP pathway inhibition in counterscreen cell line – TR-FRET cAMP detection, counter-screen for MC4R biased antagonist project, dose response (AID 602305); assay type: functional, cell-based;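 note: U2OS cells stimulated with forskolin near its EC80 as the cAMP inducer; potency is for inhibition of forskolin-stimulated cAMP signaling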
# Paired box protein Pax-8 = Paired box protein Pax-8 (Homo sapiens, UniProt Q06710); test: PAX8 transcriptional activity inhibition in RMG-I – RMG-I cells, luciferase, cherry-pick, dose response (AID 687027); assay type: functional, cell-based;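 note: luciferase reporter driven by Pax8 target thyroperoxidase promoter measured by SteadyGlo luminescence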
# cells [14] = assay type: functional, cell-based
# cells [15] = assay type: functional, cell-based; remark: listed apart in the source
# [16] = molecular target: Dual specificity protein kinase CLK1 (Homo sapiens, UniProt P49759); test: inhibition of human CLK1 activity – biochemical, cherry-picked samples, selectivity assay for Dyrk1A inhibitor project, dose response (AID 588811)
# Sequence of Dual specificity protein kinase CLK1 (P49759 whole entry): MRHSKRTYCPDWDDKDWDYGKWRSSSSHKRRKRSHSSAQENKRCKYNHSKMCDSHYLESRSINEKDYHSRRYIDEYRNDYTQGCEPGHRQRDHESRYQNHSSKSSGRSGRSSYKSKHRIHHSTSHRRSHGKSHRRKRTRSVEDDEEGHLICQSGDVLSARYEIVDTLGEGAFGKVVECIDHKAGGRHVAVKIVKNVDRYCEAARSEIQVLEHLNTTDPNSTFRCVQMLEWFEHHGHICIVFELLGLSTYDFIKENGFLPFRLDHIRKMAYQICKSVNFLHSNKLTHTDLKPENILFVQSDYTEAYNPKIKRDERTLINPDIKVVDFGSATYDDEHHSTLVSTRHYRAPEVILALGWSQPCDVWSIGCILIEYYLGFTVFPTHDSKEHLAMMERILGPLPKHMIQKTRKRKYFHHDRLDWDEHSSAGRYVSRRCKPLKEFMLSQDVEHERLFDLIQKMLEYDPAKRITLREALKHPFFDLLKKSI
# Sequence of Melanocortin receptor 4 (P32245 whole entry): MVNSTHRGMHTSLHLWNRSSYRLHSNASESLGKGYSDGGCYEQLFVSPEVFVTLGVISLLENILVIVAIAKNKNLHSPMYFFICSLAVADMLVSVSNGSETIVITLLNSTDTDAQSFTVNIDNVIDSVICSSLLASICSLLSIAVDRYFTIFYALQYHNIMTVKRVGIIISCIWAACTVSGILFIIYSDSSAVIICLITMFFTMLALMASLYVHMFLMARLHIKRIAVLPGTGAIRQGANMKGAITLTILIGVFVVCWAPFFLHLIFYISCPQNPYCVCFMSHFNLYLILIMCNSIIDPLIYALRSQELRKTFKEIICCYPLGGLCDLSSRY
# Sequence of Paired box protein Pax-8 (Q06710 whole entry): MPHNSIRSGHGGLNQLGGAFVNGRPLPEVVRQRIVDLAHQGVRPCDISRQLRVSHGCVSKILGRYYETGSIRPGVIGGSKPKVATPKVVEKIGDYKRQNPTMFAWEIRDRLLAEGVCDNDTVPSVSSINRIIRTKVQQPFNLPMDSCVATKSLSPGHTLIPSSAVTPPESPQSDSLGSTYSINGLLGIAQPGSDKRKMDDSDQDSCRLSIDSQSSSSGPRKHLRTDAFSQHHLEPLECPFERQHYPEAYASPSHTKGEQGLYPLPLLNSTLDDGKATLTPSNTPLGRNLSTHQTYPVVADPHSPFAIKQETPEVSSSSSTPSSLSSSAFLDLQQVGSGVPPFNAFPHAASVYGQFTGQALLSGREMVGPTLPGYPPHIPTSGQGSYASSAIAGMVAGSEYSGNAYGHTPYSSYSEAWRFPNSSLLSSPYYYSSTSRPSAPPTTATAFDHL
# Sequence of Adenosylmethionine-8-amino-7-oxononanoate aminotransferase (P9WQ81 whole entry): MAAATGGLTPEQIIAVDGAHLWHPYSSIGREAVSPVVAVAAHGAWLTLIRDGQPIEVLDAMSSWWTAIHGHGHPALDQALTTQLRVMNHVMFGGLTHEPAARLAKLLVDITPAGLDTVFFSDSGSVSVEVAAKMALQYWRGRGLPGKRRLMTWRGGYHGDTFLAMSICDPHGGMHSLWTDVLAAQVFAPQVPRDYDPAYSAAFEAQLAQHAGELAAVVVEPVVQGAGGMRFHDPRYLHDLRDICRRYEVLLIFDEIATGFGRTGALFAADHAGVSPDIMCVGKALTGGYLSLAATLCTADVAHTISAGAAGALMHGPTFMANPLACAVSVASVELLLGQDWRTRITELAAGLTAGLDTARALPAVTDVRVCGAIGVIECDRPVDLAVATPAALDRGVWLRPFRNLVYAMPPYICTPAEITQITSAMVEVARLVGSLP
smiles,measurement,setting,value
COCCNC(=O)C[C@H]1CC[C@@H]2[C@@H](COc3ccc(NC(=O)Nc4cccc(F)c4)cc3C(=O)N2C)O1,AC50,[1],5.19 µM (active)
O=C1CSC(=S)N1Cc1ccccc1,AC50,[2],119 µM (active)
same,AC50,HEK293,2.11 µM (active)
O=[N+]([O-])c1cc(Br)c(Nc2ccccc2)c([N+](=O)[O-])c1,EC50,BJ [3],28.3 µM (inconclusive)
same,EC50,BJ [4],2.57 µM (inconclusive)
same,EC50,BJ [5],5.53 µM (inconclusive)
same,AC50,[6],7.5 µM (active)
same,IC50,[7],2.12 µM (active)
same,EC50,BJ [8],1.37 µM (active)
same,EC50,[9],4.5 µM (active)
same,EC50,Protein RecA,5.15 µM (active)
same,AC50,[10],5.68 µM (active)
C=C1CCc2c([nH]c3ccc(OCC(C)C)cc23)C1=O,AC50,INS1,3.69 µM (active)
same,AC50,[11],35.6 µM (active)
same,IC50,Melanocortin receptor 4,6.05 µM (active)
same,AC50,[12],2.08 µM (active)
same,IC50,[13],> 64.6 µM (inactive)
same,AC50,Paired box protein Pax-8,6.14 µM (active)
CCOC(=O)CC(NC(=O)C(Cc1ccc(N(CCCl)CCCl)cc1)NC(C)=O)C(=O)OCC (centres undefined),AC50,[2],16.2 µM (active)
same,AC50,HEK293,1.65 µM (active)
CCN(CC)c1ccc(/C=N/NC(=O)c2cnccn2)c(O)c1,AC50,INS1,0.55 µM (active)
same,EC50,cells [14],8.38 µM (active)
same,AC50,[2],13.2 µM (active)
same,EC50,BJ [4],5.54 µM (active)
same,EC50,BJ [5],5.61 µM (active)
same,AC50,HEK293,5.61 µM (active)
same,EC50,cells [15],40 µM (active)
same,EC50,[9],2.17 µM (active)
c1csc(CCNc2ncnc3ccc(-c4ccc5c(c4)OCO5)cc23)c1,AC50,[16],< 0.00195 µM (active)
